Laboratory results from ChEMBL document CHEMBL1240378, “Pharmacokinetic-pharmacodynamic modeling of alpha interferon response induced by a Toll-like 7 receptor agonist in mice” (Antimicrob Agents Chemother, 2010).

What was measured:
[1] = tested on: Mus musculus; test: Induction of IFNalpha production in CD1 mouse assessed as concentration of compound required for half-maximal synthesis of INF-alpha at 0.1 to 10 mg/kg, po; assay type: functional; details: dose mg/kg 0.1-10
[2] = tested on: Mus musculus; test: Intercompartmental clearance in CD1 mouse at 0.1 to 10 mg/kg, po; assay type: ADME, organism-based; set-up: dose 0.1-10 mg/kg, route oral; details: in vivo
[3] = Clearance in CD1 mouse at 0.1 to 10 mg/kg, po; assay type: ADME, organism-based; set-up: dose 0.1-10 mg/kg, route oral; details: in vivo
[4] = tested on: Mus musculus; test: Induction of IFNalpha production in CD1 mouse assessed as maximum rate of interferon alpha synthesis at 0.1 to 10 mg/kg, po; assay type: functional; details: dose mg/kg 0.1-10
[5] = tested on: Mus musculus; test: Apparent volume of distribution in CD1 mouse at 0.1 to 10 mg/kg, po; assay type: ADME, organism-based; set-up: dose 0.1-10 mg/kg, route oral; details: in vivo
[6] = tested on: Mus musculus; test: Volume of distribution in central compartment in CD1 mouse at 0.1 to 10 mg/kg, po; assay type: ADME, organism-based; set-up: dose 0.1-10 mg/kg, route oral; details: in vivo
[7] = tested on: Mus musculus; test: Absorption rate constant for depot compartment in CD1 mouse at 0.1 to 10 mg/kg, po; assay type: ADME, organism-based; set-up: dose 0.1-10 mg/kg, route oral; details: in vivo
[8] = tested on: Mus musculus; test: Induction of IFNalpha production in CD1 mouse assessed as elimination rate constant for interferon alpha at 0.1 to 10 mg/kg, po; assay type: functional; details: dose mg/kg 0.1-10
[9] = Oral bioavailability in rat at 3 mg/kg; assay type: ADME, organism-based; details: in vivo
[10] = tested on: Hepatitis C virus; test: Antiviral activity against HCV infected in human Huh7 cells with persistent PFK1389-Luc-Ubi-Neo-NS3-3'/ET replicon after 48 hrs by luminescence based assay; assay type: functional, organism-based, Hepacivirus hominis; details: Huh-7, 48 h

COCCOc1nc(N)c2[nH]c(=O)n(Cc3ccccc3)c2n1
SC50 [1]: 135 ng/mL | CL [2]: 46.3 mL/min/kg | CL/F [3]: 57.5 mL/min/kg | Smax [4]: 294 IU/ml/hr | Vz [5]: 40 L/kg | Vd [6]: 4.31 L/kg | Ka [7]: 35 h⁻¹ | Activity [8]: 0.958 h⁻¹ | bioavailability [9]: 40% | EC50 [10]: 0.03 µM
